The source of these data is the SangsterLogP compilation.

A short description of this data set: method code SF-AS, from Ploquin, J.; Sparfel, L.; LeBaut, G.; Floc'h, R.; Welin, L.; Petit, Y.; Henry, N. (1974). Pyrophthalones. III. Properties of gamma-pyrophthalones. Eur J Med Chem, 9(5)526-533. The following applies: pH 7.4.

With `C=CCN1C=CC(=C2C(=O)c3ccccc3C2=O)C=C1C`, the logD (commonly lipophilicity at a set pH, counting ionised and neutral species) turned out to be 2.54.
As for `CC1=CC(=C2C(=O)c3ccccc3C2=O)C=C(C)N1C`, the figure is 2.5.
For the molecule `CC(O)CN1C=CC(=C2C(=O)c3ccccc3C2=O)C=C1` (centres undefined), the log distribution coefficient (logD) is 1.75.
As for `CCCN1C=CC(=C2C(=O)c3ccccc3C2=O)C=C1`, the figure is 2.64.
In the case of `CCCN1C=CC(=C2C(=O)c3ccccc3C2=O)C=C1C`, the logD came out at 2.63.
For `CCCCCCCCCN1C=CC(=C2C(=O)c3ccccc3C2=O)C=C1`, the log distribution coefficient (logD) came out at 3.45.
The same measure for `CC1=CC(=C2C(=O)c3ccccc3C2=O)C=CN1C(C)C`: 2.33; for `CC1=CC(=C2C(=O)c3ccccc3C2=O)C=CN1CC(C)C`: 2.82; for `CC=CN1C=CC(=C2C(=O)c3ccccc3C2=O)C=C1C`: 2.6.
The same measure for `O=C1C(=C2C=CN(CCc3ccccc3)C=C2)C(=O)c2ccccc21`: 3.3.
Regarding `CCN1C=CC(=C2C(=O)c3ccccc3C2=O)C=C1C`, the logD came out at 2.34.
Consider `C=CCN1C=CC(=C2C(=O)c3ccccc3C2=O)C=C1`, for which the log distribution coefficient (logD) was 2.46.
The same measure for `CCCCCN1C=CC(=C2C(=O)c3ccccc3C2=O)C=C1`: 3.27; for `CC(C)N1C=CC(=C2C(=O)c3ccccc3C2=O)C=C1`: 2.44.
The same measure for `CCN1C=CC(=C2C(=O)c3ccccc3C2=O)C=C1`: 2.12; for `CC(C)CN1C=CC(=C2C(=O)c3ccccc3C2=O)C=C1`: 2.76; for `CC=CN1C=CC(=C2C(=O)c3ccccc3C2=O)C=C1`: 2.75.
In turn, `CC(C)CCCCCN1C=CC(=C2C(=O)c3ccccc3C2=O)C=C1` yielded a pH-dependent lipophilicity (logD) of 2.98.
Regarding `O=C1C(=C2C=CN(Cc3ccccc3)C=C2)C(=O)c2ccccc21`, the pH-dependent lipophilicity (logD) came to 2.99.
Regarding `CN1C=CC(=C2C(=O)c3ccccc3C2=O)C=C1`, the logD stood at 1.6.
With `CCCCN1C=CC(=C2C(=O)c3ccccc3C2=O)C=C1`, the logD is 3.05.
As for `COCCN1C=CC(=C2C(=O)c3ccccc3C2=O)C=C1`, the figure is 2.11; as for `CC1=CC(=C2C(=O)c3ccccc3C2=O)C=CN1C`, 1.9; as for `O=C1C(=C2C=CN(CC(O)CO)C=C2)C(=O)c2ccccc21` (centres undefined), 1.36.
